Data taken from patent US9163008B2, “Pyrimidines as sodium channel blockers” (Purdue Pharma, L.P., priority 2011, dated 2015).

target: human Nav1.7 (Homo sapiens (Human), UniProt Q15858); assay: FLIPR sodium dye assay (CoroNa Green) with KCl and test article pre-incubation; assay type: cell-based; settings: not given
Sequence (Q15858 other isoform, or with tags, fused parts or gaps): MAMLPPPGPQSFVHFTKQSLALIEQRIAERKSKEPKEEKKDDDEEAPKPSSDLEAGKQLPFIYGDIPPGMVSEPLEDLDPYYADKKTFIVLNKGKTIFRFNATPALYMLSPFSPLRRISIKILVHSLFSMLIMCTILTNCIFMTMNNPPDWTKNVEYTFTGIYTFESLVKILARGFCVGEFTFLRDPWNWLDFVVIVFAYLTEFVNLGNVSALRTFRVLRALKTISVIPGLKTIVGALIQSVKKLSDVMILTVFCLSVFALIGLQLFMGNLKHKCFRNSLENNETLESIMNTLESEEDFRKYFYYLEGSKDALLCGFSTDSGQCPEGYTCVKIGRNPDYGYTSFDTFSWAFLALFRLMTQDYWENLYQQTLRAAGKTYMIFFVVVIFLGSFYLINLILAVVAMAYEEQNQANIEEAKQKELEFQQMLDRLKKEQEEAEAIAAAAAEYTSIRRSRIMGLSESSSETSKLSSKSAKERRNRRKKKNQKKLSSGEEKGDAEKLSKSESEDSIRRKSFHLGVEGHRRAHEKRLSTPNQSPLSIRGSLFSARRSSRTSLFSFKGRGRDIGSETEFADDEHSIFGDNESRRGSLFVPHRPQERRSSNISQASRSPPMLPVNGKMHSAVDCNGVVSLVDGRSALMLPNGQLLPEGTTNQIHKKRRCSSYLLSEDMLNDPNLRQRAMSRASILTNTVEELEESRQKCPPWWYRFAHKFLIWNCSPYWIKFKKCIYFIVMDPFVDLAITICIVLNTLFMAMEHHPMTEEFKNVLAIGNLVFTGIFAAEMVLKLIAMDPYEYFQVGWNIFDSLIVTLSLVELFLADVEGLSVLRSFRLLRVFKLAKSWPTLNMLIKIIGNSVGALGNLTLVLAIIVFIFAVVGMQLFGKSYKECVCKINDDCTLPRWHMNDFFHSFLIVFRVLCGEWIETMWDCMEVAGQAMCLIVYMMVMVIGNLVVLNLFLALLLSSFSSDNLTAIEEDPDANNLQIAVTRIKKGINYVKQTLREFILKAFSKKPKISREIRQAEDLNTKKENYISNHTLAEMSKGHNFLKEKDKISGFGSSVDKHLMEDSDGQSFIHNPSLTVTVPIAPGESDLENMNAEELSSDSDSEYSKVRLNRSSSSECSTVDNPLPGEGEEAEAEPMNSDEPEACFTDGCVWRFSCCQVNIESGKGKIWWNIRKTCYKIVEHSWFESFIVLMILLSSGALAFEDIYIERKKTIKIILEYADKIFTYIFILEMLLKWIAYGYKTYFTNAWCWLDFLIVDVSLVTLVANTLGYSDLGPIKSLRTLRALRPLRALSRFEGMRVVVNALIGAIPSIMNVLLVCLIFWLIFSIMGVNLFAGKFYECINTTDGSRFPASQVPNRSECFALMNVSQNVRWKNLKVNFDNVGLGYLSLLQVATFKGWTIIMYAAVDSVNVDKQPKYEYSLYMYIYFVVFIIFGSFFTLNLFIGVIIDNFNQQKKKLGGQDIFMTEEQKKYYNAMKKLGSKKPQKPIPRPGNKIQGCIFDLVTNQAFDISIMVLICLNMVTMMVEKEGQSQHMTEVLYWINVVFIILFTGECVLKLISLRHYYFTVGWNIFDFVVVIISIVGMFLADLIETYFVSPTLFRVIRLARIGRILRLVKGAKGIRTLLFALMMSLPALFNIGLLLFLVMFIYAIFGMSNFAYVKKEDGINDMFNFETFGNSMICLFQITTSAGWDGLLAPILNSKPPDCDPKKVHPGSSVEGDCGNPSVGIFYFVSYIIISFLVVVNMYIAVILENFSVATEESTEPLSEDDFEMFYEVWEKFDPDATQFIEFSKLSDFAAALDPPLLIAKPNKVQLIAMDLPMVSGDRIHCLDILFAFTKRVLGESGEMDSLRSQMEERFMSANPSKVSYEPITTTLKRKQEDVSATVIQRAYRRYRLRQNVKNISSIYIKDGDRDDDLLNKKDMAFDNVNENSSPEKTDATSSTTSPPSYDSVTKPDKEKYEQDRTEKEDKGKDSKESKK

Row | Compound | IC50
1 | NC(=O)c1cc(N2CCCC(C(N)=O)C2)nc(-c2ccc(Oc3ccc(F)cc3)cc2)n1 (stereo not drawn) [Cpd No. 24, 6-(3-carbamoylpiperidin-1-yl)-2-(4-(4-fluorophenoxy)phenyl)pyrimidine-4-carboxamide] | 10 to 20 µM

same assay, conditions: read-out: Nav1.7 Activity FLIPR assay IC50

Row | Compound | IC50
2 | NC(=O)c1cc(NC2(C(N)=O)CC2)nc(-c2ccc(Oc3ccc(F)cc3)cc2)n1 [Cpd No. 8, 6-((1-carbamoylcyclopropyl)amino)-2-(4-(4-fluorophenoxy)phenyl)pyrimidine-4-carboxamide] | 0.42 µM
3 | CCOC(=O)[C@@H]1Cc2ccccc2N1c1cc(C(N)=O)nc(-c2ccc(Oc3ccc(F)cc3)cc2)n1 [Cpd No. 16, (S)-ethyl 1-(6-carbamoyl-2-(4-(4-fluorophenoxy)phenyl)pyrimidin-4-yl) indoline-2-carboxylate] | > 20 µM
4 | C[C@@H](C(N)=O)N(C)c1cc(C(N)=O)nc(-c2ccc(Oc3ccc(F)cc3)cc2)n1 [Cpd No. 20, (S)-6-((1-amino-1-oxopropan-2-yl)(methyl)amino)-2-(4-(4-fluorophenoxy)phenyl)pyrimidine-4-carboxamide] | 0.22 µM
5 | CC(Nc1cc(C(N)=O)nc(-c2ccc(Oc3ccc(F)cc3)cc2)n1)C(N)=O (stereo not drawn) [Cpd No. 22, 6-((1-amino-1-oxopropan-2-yl)amino)-2-(4-(4-fluorophenoxy)phenyl)pyrimidine-4-carboxamide] | 0.55 µM
6 | CC(CC(N)=O)Nc1cc(C(N)=O)nc(-c2ccc(Oc3ccc(F)cc3)cc2)n1 (stereo not drawn) [Cpd No. 23, 6-((4-amino-4-oxobutan-2-yl)amino)-2-(4-(4-fluorophenoxy)phenyl)pyrimidine-4-carboxamide] | 0.3 µM
7 | COC(=O)[C@H](C)Nc1cc(C(=O)O)nc(-c2ccc(Oc3ccc(F)cc3)cc2)n1 [Cpd No. 33, (S)-2-(4-(4-fluorophenoxy)phenyl)-6-((1-methoxy-1-oxopropan-2-yl)amino)pyrimidine-4-carboxylic acid] | 0.97 µM
8 | NC(=O)c1cc(N2CCNCC2CO)nc(-c2ccc(Oc3ccc(F)cc3)cc2)n1 (stereo not drawn) [Cpd No. 48, 2-(4-(4-fluorophenoxy)phenyl)-6-(2-(hydroxymethyl)piperazin-1-yl)pyrimidine-4-carboxamide] | 0.17 µM

same assay, conditions: recombinant human Nav1.7 in HEK293; veratridine and scorpion venom agonists; read-out: Nav1.7 Activity FLIPR assay IC50

Row | Compound | IC50
9 | NC(=O)CCNc1cc(C(N)=O)nc(-c2ccc(Oc3ccc(F)cc3)cc2)n1 [Cpd No. 19, 6-((3-amino-3-oxopropyl)amino)-2-(4-(4-fluorophenoxy)phenyl)pyrimidine-4-carboxamide] | > 20 µM
10 | C[C@H](Nc1cc(C(N)=O)nc(-c2ccc(Oc3ccc(F)cc3)cc2)n1)C(=O)O [Cpd No. 28, (S)-2-((6-carbamoyl-2-(4-(4-fluorophenoxy)phenyl)pyrimidin-4-yl)amino)propanoic acid] | 10 to 20 µM
11 | O=C(O)c1cc(N2CCC[C@H]2C(=O)O)nc(-c2ccc(Oc3ccc(F)cc3)cc2)n1 [Cpd No. 29, (S)-6-(2-carboxypyrrolidin-1-yl)-2-(4-(4-fluorophenoxy)phenyl)pyrimidine-4-carboxylic acid] | > 20 µM
12 | NC(=O)c1cc(N2CCC[C@H]2C(=O)O)nc(-c2ccc(Oc3ccc(F)cc3)cc2)n1 [Cpd No. 30, (S)-1-(6-carbamoyl-2-(4-(4-fluorophenoxy)phenyl)pyrimidin-4-yl)pyrrolidine-2-carboxylic acid] | > 20 µM
13 | NC(=O)c1cc(N2c3ccccc3C[C@H]2C(=O)O)nc(-c2ccc(Oc3ccc(F)cc3)cc2)n1 [Cpd No. 31, (S)-1-(6-carbamoyl-2-(4-(4-fluorophenoxy)phenyl)pyrimidin-4-yl)indoline-2-carboxylic acid] | > 20 µM
14 | C[C@H](Nc1cc(C(N)=O)nc(-c2ccc(Oc3ccc(C#N)cn3)cc2)n1)C(N)=O [Cpd No. 37, (S)-6-((1-amino-1-oxopropan-2-yl)amino)-2-(4-((5-cyanopyridin-2-yl)oxy)phenyl)pyrimidine-4-carboxamide] | 10 to 20 µM
15 | NC(=O)c1cc(NC[C@H](O)CO)nc(-c2ccc(Oc3ccc(F)cc3)cc2)n1 [Cpd No. 46, (S)-6-((2,3-dihydroxypropyl)amino)-2-(4-(4-fluorophenoxy)phenyl)pyrimidine-4-carboxamide] | > 20 µM
